# In patent US10143704B2, “Methods for treating cancer” (Epizyme, Inc., priority 2013, dated 2018):
# Assays:
# [1] = tested on: MLL-r cells; test: Pre-clinical study of EPZ-5676: methyl mark inhibition and cell killing; type: cell-based; conditions: pre-clinical study plots, FIGS. 3A-3D
# [2] = tested on: patients with MLL-r and MLL-PTD; test: Phase 1 dose escalation/expansion study of EPZ-5676 in leukemia patients; type: in vivo, human
# Experimental: FIG. 1 is a summary of Phase 1 dose escalation study of EPZ-5676. […] The expansion stage of a Phase 1 study is enrolling adult patients with MLL-r and MLL-PTD who are being treated with 90 mg/m^2/day with uninterrupted administration.
smiles,measurement,setting,value
"CC(C)N(C[C@H]1O[C@@H](n2cnc3c(N)ncnc32)[C@H](O)[C@@H]1O)[C@H]1C[C@@H](CCc2nc3cc(C(C)(C)C)ccc3[nH]2)C1 [Compound A2, (2R,3R,4S,5R)-2-(6-amino-9H-purin-9-yl)-5-((((1r,3S)-3-(2-(5-(tert-butyl)-1H-benzo[d]imidazol-2yl)ethyl)cyclobutyl)(isopropyl)amino)methyl)tetrahydrofuran-3,4-diol]",effect of target methyl mark inhibition on cancer cells,[1],selective killing of genetically defined cancer cells
same,safety: drug-related treatment discontinuations,"[2]; adult patients with MLL-r and MLL-PTD, 90 mg/m^2/day uninterrupted administration, expansion stage of Phase 1",no drug-related treatment discontinuations
same,effect on leukemic cells in patients (micrographs),"[2]; patients with MLL-r, FIGS. 8A-8F",differentiation effect
